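Following 48 hours of exposure in 96-well plates, responses at five concentrations were used to interpolate endpoints linearly. GI50 = concentration required for 50% inhibition of growth. TGI: concentration producing complete growth inhibition.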
Tests used:
Test in all cases: NCI anticancer screen, dose series, 48 h
SF-539 CNS = test system: SF-539 CNS
MOLT-4 leukemia = test system: MOLT-4 leukemia
CCRF-CEM leukemia = test system: CCRF-CEM leukemia
OVCAR-4 ovarian = test system: OVCAR-4 ovarian
ACHN renal = test system: ACHN renal
SR leukemia = test system: SR leukemia
DU-145 prostate = test system: DU-145 prostate
UACC-62 melanoma = test system: UACC-62 melanoma
SK-MEL-28 melanoma = test system: SK-MEL-28 melanoma
M14 melanoma = test system: M14 melanoma
OVCAR-3 ovarian = test system: OVCAR-3 ovarian
MDA-MB-468 breast = test system: MDA-MB-468 breast
EKVX NSCLC = test system: EKVX NSCLC
HCC-2998 colon = test system: HCC-2998 colon
NCI-H460 lung = test system: NCI-H460 lung
A549 NSCLC = test system: A549 NSCLC
HS 578T breast = test system: HS 578T breast
SNB-75 CNS = test system: SNB-75 CNS
SK-MEL-2 melanoma = test system: SK-MEL-2 melanoma
IGROV1 ovarian = test system: IGROV1 ovarian
SK-OV-3 ovarian = test system: SK-OV-3 ovarian
OVCAR-8 ovarian = test system: OVCAR-8 ovarian
A498 renal = test system: A498 renal
NCI-H522 lung = test system: NCI-H522 lung
MDA-MB-435 = test system: MDA-MB-435
SF-295 CNS = test system: SF-295 CNS
PC-3 prostate = test system: PC-3 prostate
SW-620 colon = test system: SW-620 colon
786-0 renal = test system: 786-0 renal
TK-10 renal = test system: TK-10 renal
SNB-19 CNS = test system: SNB-19 CNS
NCI-H226 lung = test system: NCI-H226 lung
RPMI-8226 leukemia = test system: RPMI-8226 leukemia
MDA-MB-231 breast = test system: MDA-MB-231 breast
COLO 205 colon = test system: COLO 205 colon
K-562 leukemia = test system: K-562 leukemia
HOP-92 NSCLC = test system: HOP-92 NSCLC
RXF 393 renal = test system: RXF 393 renal
BT-549 breast = test system: BT-549 breast
OVCAR-5 ovarian = test system: OVCAR-5 ovarian
HCT-116 colon = test system: HCT-116 colon
MCF7 breast = test system: MCF7 breast
LOX IMVI melanoma = test system: LOX IMVI melanoma
HL-60(TB) leukemia = test system: HL-60(TB) leukemia
MALME-3M melanoma = test system: MALME-3M melanoma
SN12C renal = test system: SN12C renal
NCI/ADR-RES ovarian = test system: NCI/ADR-RES ovarian
SF-268 CNS = test system: SF-268 CNS
CAKI-1 renal = test system: CAKI-1 renal
HCT-15 colon = test system: HCT-15 colon
U251 CNS = test system: U251 CNS
UACC-257 melanoma = test system: UACC-257 melanoma
UO-31 renal = test system: UO-31 renal
HOP-62 NSCLC = test system: HOP-62 NSCLC
SK-MEL-5 melanoma = test system: SK-MEL-5 melanoma
T-47D breast = test system: T-47D breast
HT29 colon = test system: HT29 colon
KM12 colon = test system: KM12 colon
NCI-H23 lung = test system: NCI-H23 lung

COc1cc2nc(SCc3ccccc3)n(-c3ccc(Cl)cc3)c(=O)c2cc1OC
GI50 (SF-539 CNS): 7.07 µM | TGI (SF-539 CNS): 20.1 µM | GI50 (MOLT-4 leukemia): 25.2 µM | TGI (MOLT-4 leukemia): > 100 µM | GI50 (CCRF-CEM leukemia): 38.1 µM | TGI (CCRF-CEM leukemia): > 100 µM | GI50 (OVCAR-4 ovarian): 3.54 µM | TGI (OVCAR-4 ovarian): 16.9 µM | GI50 (ACHN renal): 4.69 µM | TGI (ACHN renal): 19 µM | GI50 (SR leukemia): 16.5 µM | TGI (SR leukemia): > 100 µM | GI50 (DU-145 prostate): 22.3 µM | TGI (DU-145 prostate): 98.1 µM | GI50 (UACC-62 melanoma): 42.8 µM | TGI (UACC-62 melanoma): > 100 µM | GI50 (SK-MEL-28 melanoma): 21.8 µM | TGI (SK-MEL-28 melanoma): > 100 µM | GI50 (M14 melanoma): 42.7 µM | TGI (M14 melanoma): > 100 µM | GI50 (OVCAR-3 ovarian): 15.8 µM | TGI (OVCAR-3 ovarian): 44.5 µM | GI50 (MDA-MB-468 breast): 7.61 µM | TGI (MDA-MB-468 breast): 45.6 µM | GI50 (EKVX NSCLC): 16.6 µM | TGI (EKVX NSCLC): 50.5 µM | GI50 (HCC-2998 colon): 22.5 µM | TGI (HCC-2998 colon): > 100 µM | GI50 (NCI-H460 lung): 8.29 µM | TGI (NCI-H460 lung): 33.2 µM | GI50 (A549 NSCLC): 8.69 µM | TGI (A549 NSCLC): 29.6 µM | GI50 (HS 578T breast): 6.63 µM | TGI (HS 578T breast): 48.6 µM | GI50 (SNB-75 CNS): 2.27 µM | TGI (SNB-75 CNS): 7.86 µM | GI50 (SK-MEL-2 melanoma): 36.8 µM | TGI (SK-MEL-2 melanoma): > 100 µM | GI50 (IGROV1 ovarian): 20.8 µM | TGI (IGROV1 ovarian): 80.4 µM | GI50 (SK-OV-3 ovarian): 16.6 µM | TGI (SK-OV-3 ovarian): 53 µM | GI50 (OVCAR-8 ovarian): 17.5 µM | TGI (OVCAR-8 ovarian): 66.6 µM | GI50 (A498 renal): 19.6 µM | TGI (A498 renal): 45.2 µM | GI50 (NCI-H522 lung): 18.9 µM | TGI (NCI-H522 lung): 88.2 µM | GI50 (MDA-MB-435): 64.1 µM | TGI (MDA-MB-435): > 100 µM | GI50 (SF-295 CNS): 4.36 µM | TGI (SF-295 CNS): 17.8 µM | GI50 (PC-3 prostate): 16.1 µM | TGI (PC-3 prostate): > 100 µM | GI50 (SW-620 colon): 20.1 µM | TGI (SW-620 colon): > 100 µM | GI50 (786-0 renal): 3.84 µM | TGI (786-0 renal): 15.6 µM | GI50 (TK-10 renal): 20.3 µM | TGI (TK-10 renal): 44.9 µM | GI50 (SNB-19 CNS): 12.6 µM | TGI (SNB-19 CNS): 36 µM | GI50 (NCI-H226 lung): 3.55 µM | TGI (NCI-H226 lung): 22.7 µM | GI50 (RPMI-8226 leukemia): 66.1 µM | TGI (RPMI-8226 leukemia): > 100 µM | GI50 (MDA-MB-231 breast): 16.7 µM | TGI (MDA-MB-231 breast): 79.1 µM | GI50 (COLO 205 colon): 29.4 µM | TGI (COLO 205 colon): > 100 µM | GI50 (K-562 leukemia): 12 µM | TGI (K-562 leukemia): 35.6 µM | GI50 (HOP-92 NSCLC): 16.1 µM | TGI (HOP-92 NSCLC): 49 µM | GI50 (RXF 393 renal): 4.99 µM | TGI (RXF 393 renal): 27.8 µM | GI50 (BT-549 breast): 22 µM | TGI (BT-549 breast): 82.4 µM | GI50 (OVCAR-5 ovarian): 31 µM | TGI (OVCAR-5 ovarian): > 100 µM | GI50 (HCT-116 colon): 5.09 µM | TGI (HCT-116 colon): 23.4 µM | GI50 (MCF7 breast): 14.5 µM | TGI (MCF7 breast): > 100 µM | GI50 (LOX IMVI melanoma): 5.77 µM | TGI (LOX IMVI melanoma): 18.9 µM | GI50 (HL-60(TB) leukemia): > 100 µM | TGI (HL-60(TB) leukemia): > 100 µM | GI50 (MALME-3M melanoma): 19.1 µM | TGI (MALME-3M melanoma): 68.5 µM | GI50 (SN12C renal): 11.5 µM | TGI (SN12C renal): 75.8 µM | GI50 (NCI/ADR-RES ovarian): 6.25 µM | TGI (NCI/ADR-RES ovarian): 22.7 µM | GI50 (SF-268 CNS): 10.3 µM | TGI (SF-268 CNS): 44.4 µM | GI50 (CAKI-1 renal): 3.34 µM | TGI (CAKI-1 renal): 13.7 µM | GI50 (HCT-15 colon): 19 µM | TGI (HCT-15 colon): > 100 µM | GI50 (U251 CNS): 8.14 µM | TGI (U251 CNS): 31.8 µM | GI50 (UACC-257 melanoma): 39.2 µM | TGI (UACC-257 melanoma): > 100 µM | GI50 (UO-31 renal): 13.9 µM | TGI (UO-31 renal): 51.7 µM | GI50 (HOP-62 NSCLC): 4.65 µM | TGI (HOP-62 NSCLC): 18.4 µM | GI50 (SK-MEL-5 melanoma): 47.9 µM | TGI (SK-MEL-5 melanoma): > 100 µM | GI50 (T-47D breast): 28.1 µM | TGI (T-47D breast): > 100 µM | GI50 (HT29 colon): 40.4 µM | TGI (HT29 colon): > 100 µM | GI50 (KM12 colon): > 100 µM | TGI (KM12 colon): > 100 µM | GI50 (NCI-H23 lung): 11.2 µM | TGI (NCI-H23 lung): 30.7 µM

Reference: PubChem BioAssay (NCI)
